According to article PMC2637266, “Quantification of gamma-secretase modulation differentiates inhibitor compound selectivity between two substrates Notch and amyloid precursor protein” (Molecular Brain, 2008):
Where two headings read alike, the source gives them in different places.

Key:
[1] = target: γ-secretase; details: read-out: IC50 for de novo Aβ and AICD generation in vitro; cited from earlier work
[2] = tested on: γ-secretase, NICD generation; parameters: method as in PMID 16236717; details: 50 nM; cited from earlier work
[3] = tested on: γ-secretase, AICD generation; parameters: method as in PMID 16236717; details: 100 nM; cited from earlier work
[4] = tested on: zebrafish embryos; parameters: method as in PMID 12101103; details: treatment at late blastula stage; cited from earlier work
[5] = tested on: brain Aβ; parameters: method as in PMID 11145990; details: transgenic mouse, human familial AD linked V717F APP; cited from earlier work
[6] = target: T1, γ-secretase cleavage of APP (Homo sapiens, UniProt P49768); experiment: Aβ ELISA from HEK293 cells transiently transfected with APP; type: cell-based
T1 construct: endogenous in cells; host or cells: HEK293 stably expressing Swedish mutant human APP695, transiently transfected with NotchΔE
Excerpt: (§1) Two cDNA constructs expressing chimeric APP and Notch were previously reported to generate chimeric "Notch-Aβ-like" (Nβ*) peptide. One construct has its transmembrane domain (TMD) replaced by the Notch TMD (APP-m-NOTCH) and the other with the juxtamembrane portion of the APP ectodomain (the α-secretase cleavage region) replaced by the corresponding sequence in Notch (APP-α-NOTCH). Taking advantage of different combinations of ELISA antibodies (see Methods), effects of cpd E on the generation of Aβ and Nβ* peptides from these chimeric APP-Notch substrates were quantified by ELISA.
(§2) Individual construct APP, APP-α-Notch or APP-m-Notch was transiently transfected into HEK293 cells. These chimeric protein expressing cells were treated with cpd E, and the levels of Aβ and Nβ* were measured by ELISA. […] Similar results were obtained when m-Notch was expressed in HEK293 cells. At least two magnitude of difference was observed, with EC50 for cpd E was […], compared to EC50 for Nβ* at ~1 nM (Fig. 3B).
(§3) Figure 3 Generation of Aβ and Nβ* from chimeric APP-Notch expressing cells. […] Levels of Nβ* in the media from cells expressing APP-α-Notch (dotted line) and levels of Aβ from APP expressing cells (solid line) were determined by ELISA. […] Levels of Aβ (solid line) and Nβ* (dotted line) were determined by ELISA. […]

[7] = target: T2, γ-secretase cleavage of chimeric APP-α-NOTCH (Homo sapiens, UniProt P49768); experiment: Nβ* ELISA from HEK293 cells expressing APP-α-Notch; type: cell-based
T2 construct: endogenous in cells; host or cells: HEK293 transiently transfected with APP-α-Notch
Excerpt: as §1, §2, §3

[8] = target: T3, γ-secretase cleavage of chimeric APP-m-NOTCH (Homo sapiens, UniProt P49768); experiment: Nβ* ELISA from HEK293 cells expressing APP-m-Notch; type: cell-based
T3 construct: endogenous in cells; host or cells: HEK293 transiently transfected with APP-m-Notch
Excerpt: as §1, §2, §3

[9] = tested on: NICD generation; parameters: method as in PMID 15319485; details: found as low as; read-out: IC50 for NICD generation in cultured cells; cited from earlier work
[10] = tested on: Aβ generation; parameters: method as in PMID 10915801; details: found as low as; read-out: IC50 for Aβ generation in cultured cells; cited from earlier work
[11] = tested on: brain cortical γ-secretase; parameters: method as in PMID 15857627; details: guinea pig; cited from earlier work

Compound | IC50 [1] [nM] | inhibition of NICD generation in vitro [2] | inhibition of AICD generation in vitro [3] | zebrafish somitogenesis and neurogenesis [4] | brain Aβ [5] | EC50 ([6]; EC for inhibiting 50% of Aβ production, APP expressing HEK293, α-Notch experiment, Fig. 3A) [nM] | EC50 ([6]; HEK293, m-Notch experiment, Fig. 3B, read-out: EC50 for APP (Aβ)) [nM] | EC50 [7] [nM] | EC50 [8] [nM] | IC50 [9] [nM] | IC50 [10] [nM] | brain cortical γ-secretase activity [11] | plasma, CSF and brain Aβ levels [11]
C[C@H](NC(=O)Cc1cc(F)cc(F)c1)C(=O)N[C@H](C(=O)OC(C)(C)C)c1ccccc1 [DAPT, N-[N-(3,5-Difluorophenacetyl-L-alanyl)]-S-phenylglycine t-Butyl Ester] | 10 to 100 | partial inhibition | partial inhibition | caused defects in somitogenesis and neurogenesis | dose-dependent, acute decrease in brain Aβ | – | – | – | – | – | – | – | –
C[C@H](NC(=O)Cc1cc(F)cc(F)c1)C(=O)N[C@H]1N=C(c2ccccc2)c2ccccc2N(C)C1=O [cpd E, (S,S)-2-[2-(3,5-Difluorophenyl)-acetylamino]-N-(1-methyl-2-oxo-5-phenyl-2,3-dihydro-1H-benzo [e] [1,4]diazepin-3-yl)-propionamide] | – | – | – | – | – | < 0.1 | ~0.03 | ~8 | ~1 | 1.7 | 0.3 | dose-dependent inhibition of brain cortical γ-secretase activity | decreases in plasma, CSF and brain Aβ levels
